Values of other authors in patent publication US20130209380A1, “MOISTURIZING COMPOSITION WITH SPF 30” (GALDERMA S.A., priority 2010, published 2013).

Tested on: stratum corneum
Conditions: In vitro human skin model

Q: For CCCCCCCCCCCCCCC[C@@H](O)[C@H](CO)NC(=O)C(O)CCCCCCCCCCCCCC (some centres unmarked) [pseudo ceramide 5, N-(2-hydroxyhexadecanoyl)sphinganine], which “affinity and diffusion into the stratum corneum” value is on record?
A: good

Q: What about the “effect on synthesis of ceramides 1-2-3” value of the same molecule?
A: induction synthesis of ceramides 1-2-3
